What was measured:
Human α4β2 nAChR subtype = target: T1, Human α4β2 nAChR subtype (Homo sapiens, UniProt P17787+P43681); assay: [3H]nicotine radioligand binding, membranes from SH-EP1/human α4β2 clonal cells
T1 construct: expressed in transfected cells; host or cells: SH-EP1 clonal cells
Description: Preparation of membranes from SH-EP1/human α4β2 clonal cells:
Cell pellets from 40 150 mm culture dishes were pooled, and homogenized by Polytron (Kinematica GmbH, Switzerland) in 20 milliliters of ice-cold preparative buffer. The homogenate was centrifuged at 48,000 g for 20 minutes at 4° C. The resulting pellet was re-suspended in 20 mL of ice-cold preparative buffer and stored at ˜20° C.
On the day of the assay, the frozen membranes were thawed and spun at 48,000×g for 20 min. The supernatant was decanted and discarded. The pellet was resuspended in Dulbecco's phosphate buffered saline (PBS, Life Technologies) pH 7.4 and homogenized with the Polytron for 6 seconds. Protein concentrations were determined using a Pierce BCA Protein Assay Kit, with bovine serum albumin as the standard (Pierce Chemical Company, Rockford, Ill.).
Assay: Membrane preparations (approximately 50 μg for human and 200-300 μg protein for rat α4β2) were incubated in PBS (50 μL and 100 μL respectively) in the presence of competitor compound (0.01 nM to 100 μM) and 5 nM [^3H]nicotine for 2-3 hours on ice. Incubation was terminated by rapid filtration on a multi-manifold tissue harvester (Brandel, Gaithersburg, Md.) using GF/B filters presoaked in 0.33% polyethyleneimine (w/v) to reduce non-specific binding. Tissue was rinsed 3 times in PBS, pH 7.4. Scintillation fluid was added to filters containing the washed tissue and allowed to equilibrate. Filters were then counted to determine radioactivity bound to the membranes by liquid scintillation counting (2200CA Tri-Carb LSC, Packard Instruments, 50% efficiency or Wallac Trilux 1450 MicroBeta, 40% efficiency, Perkin Elmer).
Data were expressed as disintegrations per minute (DPMs). Within each assay, each point had 2-3 replicates. The replicates for each point were averaged and plotted against the log of the drug concentration. IC50, which is the concentration of the compound that produces 50% inhibition of binding, was determined by least squares non-linear regression. Ki values were calculated using the Cheng-Prussof equation (1973): […]
where N is the concentration of [^3H]nicotine and Kd is the affinity of nicotine (3 nM, determined in a separate experiment).

[1] = target: T2, human ganglionic nAChR subtype (Homo sapiens, UniProt P30926+P32297); assay: 86Rb+ efflux in SH-SY5Y cells (human ganglionic nAChR subtype); assay type: cell-based
T2 construct: endogenous in cells; host or cells: SH-SY5Y human neuroblastoma cells
Excerpt: Example 8: Interaction at the Human Ganglionic nAChR Subtype
The cell line SH-SY5Y is a continuous line derived by sequential subcloning of the parental cell line, SK-N-SH, which was originally obtained from a human peripheral neuroblastoma. SH-SY5Y cells express a ganglion-like nAChR (Lukas et al., Mol. Cell. Neurosci. 4: 1 (1993)).
Human SH-SY5Y cells were maintained in proliferative growth phase according to routine protocols (Bencherif et al., Mol. Cell. Neurosci. 2: 52 (1991) and Bencherif et al., J. Pharmacol. Exp. Ther. 257: 946 (1991)). Cells were cultured in Dulbecco's modified Eagle's medium (Gibco/BRL) with 10% horse serum (Gibco/BRL), 5% fetal bovine serum (HyClone, Logan Utah), 1 mM sodium pyruvate, 4 mM L-Glutamine, and 50,000 units penicillin-streptomycin (Irvine Scientific). When cells were 80% confluent, they were plated to 12 well polystyrene plates (Costar). […]
Nicotinic acetylcholine receptor (nAChR) function was assayed using ^86Rb^+efflux according to a method described by Lukas et al., Anal. Biochem. 175: 212 (1988). […] Scintillation fluid was added and released radioactivity was measured by liquid scintillation counting. […]
When appropriate, dose-response curves of test compound were determined. The maximal activation for individual compounds (Emax) was determined as a percentage of the maximal activation induced by L-nicotine. […]

T2 sequence (P32297 32-505): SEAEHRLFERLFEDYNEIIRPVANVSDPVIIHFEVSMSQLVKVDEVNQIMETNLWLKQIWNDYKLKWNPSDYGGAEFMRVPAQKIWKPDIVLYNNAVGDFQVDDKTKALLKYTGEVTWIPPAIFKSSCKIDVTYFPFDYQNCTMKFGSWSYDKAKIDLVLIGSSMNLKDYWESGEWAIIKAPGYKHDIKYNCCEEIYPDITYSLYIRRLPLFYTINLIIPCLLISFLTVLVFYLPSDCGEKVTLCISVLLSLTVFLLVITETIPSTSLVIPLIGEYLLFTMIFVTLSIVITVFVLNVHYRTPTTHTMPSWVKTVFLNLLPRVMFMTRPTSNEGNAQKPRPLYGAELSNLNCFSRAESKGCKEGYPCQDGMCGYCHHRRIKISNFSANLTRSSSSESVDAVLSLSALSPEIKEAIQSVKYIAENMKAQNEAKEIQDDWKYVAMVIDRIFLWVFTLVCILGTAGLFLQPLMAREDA
T2 sequence (P30926 22-498): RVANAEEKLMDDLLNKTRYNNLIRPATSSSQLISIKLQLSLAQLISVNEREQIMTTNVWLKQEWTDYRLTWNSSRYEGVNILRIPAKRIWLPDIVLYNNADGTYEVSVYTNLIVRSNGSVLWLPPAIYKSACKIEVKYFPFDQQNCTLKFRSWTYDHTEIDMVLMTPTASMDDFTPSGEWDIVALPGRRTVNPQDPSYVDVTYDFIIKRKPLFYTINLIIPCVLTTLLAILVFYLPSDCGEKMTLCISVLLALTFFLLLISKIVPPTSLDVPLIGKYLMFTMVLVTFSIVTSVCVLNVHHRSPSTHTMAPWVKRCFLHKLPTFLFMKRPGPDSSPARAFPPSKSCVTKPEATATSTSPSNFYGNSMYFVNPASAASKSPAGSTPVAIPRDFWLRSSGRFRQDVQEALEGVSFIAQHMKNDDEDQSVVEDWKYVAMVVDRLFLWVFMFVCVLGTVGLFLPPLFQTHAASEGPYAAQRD
T1 sequence (P43681 29-627 limits assumed): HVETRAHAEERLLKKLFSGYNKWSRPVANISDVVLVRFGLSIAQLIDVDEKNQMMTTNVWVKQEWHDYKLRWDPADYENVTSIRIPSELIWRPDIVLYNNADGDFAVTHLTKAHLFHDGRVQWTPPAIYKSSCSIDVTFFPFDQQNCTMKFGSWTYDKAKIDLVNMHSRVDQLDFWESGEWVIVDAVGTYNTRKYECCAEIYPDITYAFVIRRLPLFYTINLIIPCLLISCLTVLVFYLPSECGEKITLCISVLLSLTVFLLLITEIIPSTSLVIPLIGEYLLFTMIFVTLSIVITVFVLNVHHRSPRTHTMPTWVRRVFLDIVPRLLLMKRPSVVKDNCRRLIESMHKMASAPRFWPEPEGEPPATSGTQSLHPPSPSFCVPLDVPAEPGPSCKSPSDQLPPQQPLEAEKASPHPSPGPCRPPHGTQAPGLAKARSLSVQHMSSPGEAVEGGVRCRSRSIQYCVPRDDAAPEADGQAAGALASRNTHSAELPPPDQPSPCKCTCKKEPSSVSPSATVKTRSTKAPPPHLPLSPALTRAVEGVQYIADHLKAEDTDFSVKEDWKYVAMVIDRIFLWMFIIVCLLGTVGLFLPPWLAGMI
T1 sequence (P17787 26-502): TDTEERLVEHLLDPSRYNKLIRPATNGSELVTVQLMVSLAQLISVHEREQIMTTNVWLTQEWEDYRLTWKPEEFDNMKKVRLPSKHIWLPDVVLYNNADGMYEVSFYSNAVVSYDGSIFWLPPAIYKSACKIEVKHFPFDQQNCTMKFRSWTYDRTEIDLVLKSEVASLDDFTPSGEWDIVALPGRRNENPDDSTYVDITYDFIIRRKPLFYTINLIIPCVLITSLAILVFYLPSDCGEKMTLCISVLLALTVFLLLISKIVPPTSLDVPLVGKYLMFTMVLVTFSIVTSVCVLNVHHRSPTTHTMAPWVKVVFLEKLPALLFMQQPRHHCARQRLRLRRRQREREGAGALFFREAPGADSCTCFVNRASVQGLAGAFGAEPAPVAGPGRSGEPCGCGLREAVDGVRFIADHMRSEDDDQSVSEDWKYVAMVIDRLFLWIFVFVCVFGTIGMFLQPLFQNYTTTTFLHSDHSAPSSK

Question: With c1cnc2cc3c(cc2n1)CCNCC3 [Compound A, 7,8,9,10-tetrahydro-6H-azepino[4,5-g]quinoxaline] as the compound, how does the Ki (Human α4β2 nAChR subtype) read?
Answer: The Ki was 10 nM.

Question: And the EC50 ([1]; 86Rb+ efflux)?
Answer: The EC50 was 4400 nM.

Question: What about the Emax ([1]; percentage of maximal activation induced by L-nicotine) of the same compound?
Answer: Its Emax is 21%.

— US20120053168A1, “FUSED BENZOAZEPINES AS NEURONAL NICOTINIC ACETYLCHOLINE RECEPTOR LIGANDS” (Targacept, Inc., priority 2009, published 2012)
